Assay results: patent US20010006961A1, “METHOD FOR IMPROVING FRUIT YIELDS FROM BANANA PLANTS” (priority 1995, published 2001)

Experiments:
banana plants [1] = assay: In vivo test on a banana plantation, fosetyl-Al wettable powder applied with a knapsack sprayer (Example 1)
Procedure: Example 1: In viva test of a composition comprising fosetyl-Al on a banana plantation:
(§1) The test is carried out on a plantation of banana plants which have reached a stage of regular fruit production. This plantation is furthermore treated periodically throughout the duration of the test by means of a conventional protective treatment against various fungal diseases, as well as against harmful insects and nematodes, which treatment is known to have no effect of the type of those observed below with fosetyl-Al.
The duration of the test is 2 years.
At the beginning of the first year, treatment with fosetyl-Al is carried out. For this, use is made of a wettable powder formulation of fosetyl-Al diluted in water before use, which is applied by means of a knapsack sprayer. The application dose is 6.4 kg of fosetyl-Al per hectare. This application of fosetyl-Al is repeated every 3 months throughout the duration of the test.
The average weight of a bunch of bananas harvested per plant is measured. The mean value of this weight, during the 2nd year of the test, is equal to 39.8 kg.
In comparison, a control test was carried out, in which there was no application of fosetyl-Al, the protocol otherwise being identical. This test gave 38.4 kg as the average value of the weight of a bunch of bananas harvested per plant, measured under the same conditions as above.

banana plants [2] = assay: In vivo test on a banana plantation on a soil of different nature, treatment carried out with an aeroplane (Example 2); details: applied by aeroplane, control 37.4 kg
Description: Example 2: In vivo test of a composition comprising fosetyl-Al on a banana plantation:
Example 1 is repeated, a plantation situated on a soil of different nature being treated and the treatment being carried out with an aeroplane. The fosetyl-Al doses applied are shown in the table below, along with the average banana bunch weights obtained.

banana plants [3] = assay: In vivo test of application by injection into the growing pseudostem (Example 3); details: 6 kg/ha (3 g per plant) injected into pseudostem 1 month before flowering; harvest 4 months later; control 28.3 kg
Procedure: Example 3: In vivo test of the application of a composition comprising fosetyl-Al by injection into the growing pseudostem:
as §1, with “preventive” for “protective”
Fosetyl-Al is injected into the pseudostem of the growing banana plants, in the proportion of 6 kg/ha (i.e. 3 g of fosetyl-Al per plant), 1 month before flowering.
The fruits are harvested 4 months later. The average weight of the bunch of bananas is 31.4 kg. The average weight of a bunch of bananas corresponding to the control test (untreated banana plants) is 28.3 kg.

CCO[PH](=O)[O-].CCO[PH](=O)[O-].CCO[PH](=O)[O-].[Al+3] [fosetyl-Al, aluminium tris(O-ethyl phosphonate)]
average weight of a bunch of bananas harvested per plant (banana plants [1]; 6.4 kg fosetyl-Al per hectare, sprayed every 3 months, mean value during 2nd year of the test, control 38.4 kg): 39.8 kg
difference in average bunch weight versus control, relative value (banana plants [1]; 6.4 kg/ha every 3 months, 39.8 kg vs control 38.4 kg): 5%
additional amount of fruit (banana plants [1]; in the case where the yield of the banana plantation is 40 tonnes/hectare of bananas): ~2 tonnes
Average weight of a bunch (banana plants [2]; fosetyl-Al dose 3.2 kg/ha): 38.9 kg
Average weight of a bunch (banana plants [2]; fosetyl-Al dose 6.4 kg/ha): 39.7 kg
average weight of the bunch of bananas (banana plants [3]): 31.4 kg
